This note sets out measurements from patent US11352320B2 (Merck Sharp & Dohme Corp., priority 2018, dated 2022).

In test [1] the target is T1, IDO1 (Homo sapiens, UniProt P14902). Put plainly: IDO1 Cellular Assay in Hela Cells Stimulated with IFNγ. As to conditions: IFNγ 100 ng/mL, 300 uM L-tryptophan, about 48 hours, fluorescence readout, read-out: IDO1 HELA Cell Assay, IC50. The test is classed as cell-based. Further details: endogenous in cells; host or cells: HeLa cells stimulated with IFNγ. The procedure: Biological Assays IDO1 Cellular Assay in Hela Cells Stimulated with IFNγ
T1 sequence (P14902 whole entry): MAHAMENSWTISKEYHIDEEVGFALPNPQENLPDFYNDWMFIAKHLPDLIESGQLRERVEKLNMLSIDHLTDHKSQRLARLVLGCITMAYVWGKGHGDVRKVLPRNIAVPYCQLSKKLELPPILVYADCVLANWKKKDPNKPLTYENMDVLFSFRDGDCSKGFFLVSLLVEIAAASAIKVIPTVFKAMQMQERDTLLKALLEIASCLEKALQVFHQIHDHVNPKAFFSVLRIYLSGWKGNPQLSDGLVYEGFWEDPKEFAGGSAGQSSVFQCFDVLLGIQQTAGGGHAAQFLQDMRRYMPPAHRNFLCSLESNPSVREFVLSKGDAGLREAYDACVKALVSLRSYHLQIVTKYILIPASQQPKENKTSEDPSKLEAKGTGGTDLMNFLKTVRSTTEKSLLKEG
Hela cells were cultured in complete Hela culture medium (90% EMEM, 10% heat-inactivated fetal bovine serum) and expanded to about 1×10^9 cells. The cells were then collected and frozen down at 1×10^7 cells/vial in 1 mL frozen medium (90% complete Hela culture medium, 10% DMSO)
Compounds to be tested were serially diluted in ten 3-fold steps in DMSO starting from 10 mM DMSO stocks in Echo low volume plate(s). Compound dilutions or DMSO alone were then dispensed from the dilution plate(s) into Greiner black 384-well assay plate(s) (catalog #781086, 50 nL/well) using an Echo 550 acoustic liquid handler (Labcyte).
Frozen Hela cells were thawed and transferred into Hela assay medium (99% complete Hela culture medium, 1% Pen/Strep) with 20 mL medium/vial of cells. The cells were spun down at 250 g in a table top centrifuge for 5 min and suspended in same volume of Hela assay medium. The cells were then counted and adjusted to a density of 2×10^5 cells/ml in Hela assay medium. Sterile L-tryptophan were added to the cells with final concentration of 300 uM L-tryptophan. A small aliquot (2 mL/plate) of Hela cells were set aside and were not treated with IFNγ, to serve as the Max-E control. The rest of Hela cells were added with sterile IFNγ (Cat #285-IF, R & D systems) with a final concentration of 100 ng/mL.
Hela cells with and without IFNγ were dispensed to the respective wells of 384-well assay plates containing the compounds. The plates were incubated for about 48 hours at a 37° C., 5% CO2 incubator. Afterwards, 12 μL of 0.5 M methyl isonipecotate in dimethyl sulfoxide were added into each well and the plates were sealed and incubated at 37° C. without CO2 overnight. The plates were centrifuged for 1 min at 200×g. The resulting fluorescence was measured in a Spectramax plate reader (Molecular Devices) with a 400 nm excitation filter and a 510 nm emission filter.
The fluorescence intensity of each well was corrected for the background observed in wells with non-IFNγ-treated cells and was expressed as a fraction of the intensity observed in wells of IFNγ-treated cells and DMSO only. Potencies were calculated by linear least squares fit to the four parameter logistic IC50 equation.
Compounds disclosed herein generally have IC50 of about 1 nM to about 1,000 nM, or more specifically, about 2 nM to about 800 nM, or more specifically, about 5 nM to about 600 nM, or still more specifically, about 10 nM to about 500 nM. Such a result is indicative of the intrinsic activity of the compounds in use as an inhibitor of an IDO enzyme.

For test [2], the target named is T1, IDO1. Put plainly: IDO1 Human Whole Blood Assay. The test is classed as cell-based. As to conditions: LPS and IFNγ 100 ng/mL, 18 h, kynurenine by LC/MS/MS. The procedure: IDO1 Human Whole Blood Assay
Compounds to be tested were serially diluted in ten 3-fold steps in DMSO starting from 10 mM. 3 μL of compound dilutions or DMSO alone were then dispensed from the dilution plate into a polypropylene 96-well assay plate containing 97 μL of RPMI medium using an Echo 555 acoustic liquid handler (Labcyte). LPS and IFNγ was prepared in RPMI medium to a 10× of final conc. (1000 ng/mL), final concentration is 100 ng/mL.
Two hundred forty μL of blood was transferred to each of the wells of a v-bottom 96 well plate. Thirty μL of compound was transferred from intermediate dilution plate, and incubated for 15 min. Thirty μL from stimulants was then transferred to blood and mixed thoroughly. Plate was covered with breathable membrane and incubated at 37° C. for overnight (18 h).
On day 2 isotope labeled standard of kynurenine and tryptophan was made in water at 10× concentration and 30 μL was added to the blood at 3 μM final concentration. The assay plates were centrifuged at 300×G for 10 min with no brake to separate plasma from red blood cells. Sixty μL of plasma samples was removed without disturbing red blood cells. Plasma was diluted with RPMI in 1:1 ratio and proteins were precipitated out with two volume of acetonitrile. The plates were centrifuged at 4000×G for 60 min. Twenty μL of supernatant was carefully transferred to a 384 well plate containing 40 μL of 0.1% formic acid in water and analyzed by LC/MS/MS.
LC/MS/MS analyses were performed using Thermo Fisher's LX4-TSQ Quantum Ultra system. This system consists of four Agilent binary high-performance liquid chromatography (HPLC) pumps and a TSQ Quantum Ultra triple quadruple MS/MS instrument. For each sample, 5 μL were injected onto an Atlantis T3 column (2.1 mm×150 mm, 3 μm particle size) from Waters. The mobile phase gradient pumped at 0.8 mL/min was used to elute the analytes from the column at 25° C. […] Compounds were titrated and IC50's were calculated by 4 parameter sigmoidal curve fitting formula. […]

Molecules are shown by their SMILES. Where a name gives a salt, the structure may show the parent alone.

Turning to `CC(C(=O)Nc1ccc(F)cc1)C12CC(Nc3ncnc4ccccc34)(C1)C2` (single isomer, unassigned) [Example 5, N-(4-fluorophenyl)-2-(3-(quinazolin-4-ylamino)bicyclo[1.1.1]pentan-1-yl)propanamide], the IC50 was found to be 5.38 nM at IDO1 [1] and 543 nM on IDO1 [2].
For `CC(C(=O)Nc1ccc(F)cc1)C12CC(Nc3ncnc4ccc(F)cc34)(C1)C2` (single isomer, unassigned) [Example 11, N-(4-fluorophenyl)-2-(3-((6-fluoroquinazolin-4-yl)amino)bicyclo[1.1.1]pentan-1-yl)propanamide], the IC50 at IDO1 [1] amounted to 3.23 nM; at IDO1 [2], 378 nM.
Turning to `C[C@H](C(=O)Nc1ccc(F)cc1)C12CC(NCc3cccc(Cl)c3)(C1)C2` [Example 28, (S)-2-(3-((3-chlorobenzyl)amino)bicyclo[1.1.1]pentan-1-yl)-N-(4-fluorophenyl)propanamide, TFA], the IC50 at IDO1 [1] was determined as 25.7 nM.
`C[C@H](C(=O)Nc1ccc(F)cc1)C12CC(N(C)Cc3cccc(Cl)c3)(C1)C2` [Example 29, (S)-2-(3-((3-chlorobenzyl)(methyl)amino)bicyclo[1.1.1]pentan-1-yl)-N-(4-fluorophenyl)propanamide, TFA]: the IC50 on IDO1 [1] amounted to 5.6 nM; at IDO1 [2], 625 nM.
`C[C@H](C(=O)Nc1ccc(F)cc1)C12CC(NCc3cccc(C(F)(F)F)c3)(C1)C2` [Example 30, (S)-N-(4-fluorophenyl)-2-(3-((3-(trifluoromethyl)benzyl)amino)bicyclo[1.1.1]pentan-1-yl)propanamide, TFA]: the IC50 on IDO1 [1] turned out to be 82.3 nM.
For `C[C@H](C(=O)Nc1ccc(F)cc1)C12CC(N(C)Cc3cccc(C(F)(F)F)c3)(C1)C2` [Example 31, (S)-N-(4-fluorophenyl)-2-(3-(methyl(3-(trifluoromethyl)benzyl)amino)bicyclo[1.1.1]pentan-1-yl)propanamide, TFA], the IC50 on IDO1 [1] was 15.1 nM.
Still for that read-out and setting: the result for `C[C@H](C(=O)Nc1ccc(F)cc1)C12CC(NCc3ccc(Cl)c(Cl)c3)(C1)C2` [Example 32, (S)-2-(3-((3,4-dichlorobenzyl)amino)bicyclo[1.1.1]pentan-1-yl)-N-(4-fluorophenyl)propanamide, TFA] reads 51.3 nM.
Turning to `C[C@H](C(=O)Nc1ccc(F)cc1)C12CC(N(C)Cc3ccc(Cl)c(Cl)c3)(C1)C2` [Example 33, (S)-2-(3-((3,4-dichlorobenzyl)(methyl)amino)bicyclo[1.1.1]pentan-1-yl)-N-(4-fluorophenyl)propanamide, TFA], on IDO1 [1], the IC50 was 8.86 nM.

The term IC50 denotes the concentration at which inhibition is half-maximal.
